In PubChem BioAssay AID1053123 (Broad Institute, 2014):

Test system: CHO ER-LucT cells, luciferase glycosylation gel shift, 24 h
Experiment: luciferase glycan loss by western gel shift – CHO ER-LucT cells, western blot, cherry-picked, dose response (AID 1053123)

Row | SMILES | AC50 [nM]
1 | Cc1csc(NC(=O)c2cc(S(=O)(=O)N(C)C)ccc2N2CCCC2)n1 | 395
2 | Cc1cnc(NC(=O)c2cc(S(=O)(=O)N3CCCC3)ccc2N2CCCC2)s1 | 2520
3 | Cc1cnc(NC(=O)c2cc(S(=O)(=O)N(C)C)ccc2N2CCC2)s1 | 10500
4 | Cc1cnc(NC(=O)c2cc(S(=O)(=O)N(C)C)ccc2N2CCCC2)s1 | 7640
5 | Cc1cnc(NC(=O)c2cc(S(=O)(=O)N3CCOCC3)ccc2N2CCCC2)s1 | 950
